Test results taken from patent US4511574A, “N-(4-Phenyl-2-thiazolyl)carbamate derivatives” (Mitsui Toatsu Kagaku Kabushiki Kaisha, priority 1981, dated 1985).
Where a name gives a salt, the structure may show the parent alone.

Columns and labels:
[1] = tested on: delayed hypersensitivity induced by picryl chloride; assay: Reinforcement test of delayed hypersensitivity (picryl chloride); type: in vivo, ICR male mice; conditions: 50 mg/Kg oral, simultaneously with sensitization; 24 hours after challenging; average of both pinnae of eight mice; * P<0.05, ** P<0.01 vs control
Source text: This feature will hereinafter be described by way of test examples. Various test systems using animals have been routinely adopted for the determination of immunomodulating activity.
The delayed hypersensitivity induced on a mouse when picryl chloride(2-chloro-1,3,5-trinitrobenzene) is applied onto the skin of the mouse is known as a typical cellular immunity.
This test system was used for the reinforcement tests of the delayed hypersensitivity.
Groups of eight ICR male mice, each having a body weight of about 30 g or so, were used for the test.
Sensitization was effected by applying a 3% solution of picryl chloride in a 4/1 mixture of olive oil and acetone onto the shaved abdomen of each of the mice.
Simultaneously with the sensitization, a solution or suspension of a compound according to this invention dissolved or suspended in a 0.2% solution of carboxymethyl cellulose in a physiological saline was orally administered to the mouse at a dose of 50 mg per Kg of its body weight. To each mouse of a control group, a 0.2% carboxymethylcellulose solution in a physiological saline was similarly administered.
The delayed hypersensitivity was induced 7 days after the sensitization by pinching each of the pinnae of each mouse with a pair of forceps whose tip portions were wrapped with a felt impregnated with a 1% solution of picryl chloride in olive oil and coating the pinnae with the solution. The thickness of each pinna was measured before the challenging and 24 hours after the challenging and the ratio of increase of the thickness (average value of both of the pinnae of the eight mice) is shown in Table 1.
For comparison, a similar test was carried out using Levamisole hydrochloride.
F.t tests were carried out on the thus-obtained test results.

ddY male mice = assay: Acute toxicity test through oral administration; type: in vivo; conditions: five ddY male mice per group, watched 7 days
Source text: TEST EXAMPLE 3 (ACUTE TOXICITY TEST THROUGH ORAL ADMINISTRATION)
Test Procedures: To each of a group of five ddY male mice, was orally administered a medicine dissolved or suspended in physiological saline. They were watched for 7 days after the administration and an estimated LD50 value was obtained.

[2] = tested on: adjuvant arthritis (Mycobacterium tuberculosis adjuvant); assay: Adjuvant arthritis test; type: in vivo, SD male rats; conditions: 5 mg/Kg subcutaneous, 9 times; left hind leg; average value from 16th to 20th days; * P<0.05, ** P<0.01, *** P<0.001 vs control
Source text: Next, a result of tests made on immuno-modulating activity in the adjuvant arthritis test is shown.
The adjuvant arthritis in rats caused by the injection of a Mycobacterium tuberculosis adjuvant is often utilized for a model test of chronic rheumatoid arthritis in the human.
The mechanism of manifestation of this disease has not completely been elucidated, but it is known that the cellular immunity plays an important role. The immuno-modulating activity of the compounds according to this invention was investigated in accordance with this known adjuvant arthritis test.
8-Week-old SD male rats were used for the test. In 0.1 ml of fluid paraffin, 0.4 mg of dry dead cells of Mycobacterium tuberculosis were suspended, and the suspension was injected under the heel skin of the right hind leg of each rat. Each of the compounds according to this invention was subcutaneously administered 9 times in total before and after the injection of the adjuvant. Each of the compounds of the present invention was dissolved or suspended in a 0.2% solution of carboxymethylcellulose in physiological saline and administered to each rat at a dose of 5 mg per Kg of the body weight. The swollen volume of the left hind leg was measured during the period extending from the day of injection to the day of completion of the test, and the swelling ratio was calculated. For comparison, a similar test was conducted using Levamisole hydrochloride. F.t tests were carried out on the test results obtained.

## c1ccc([C@H]2CN3CCSC3=N2)cc1 [Levamisole.HCl, Levamisole hydrochloride, reference compound]
[1]
  Ratio of Increase of Pinna Thickness: 31.2%
ddY male mice
  estimated LD50 value: 200 to 300 mg/kg
[2]
  Swell suppression ratio to control group: 19.8%

## CCOC(=O)Nc1nc(-c2ccc([N+](=O)[O-])cc2)cs1 [drawing 11]
[2]
  Swell suppression ratio to control group: 71.4%

## CCOC(=O)Nc1nc(-c2ccc([N+](=O)[O-])cc2)cs1 [drawing 7]
[1]
  Ratio of Increase of Pinna Thickness: 34.8%

## O=C(Nc1nc(-c2ccc([N+](=O)[O-])cc2)cs1)OCC(Cl)(Cl)Cl [drawing 5]
[1]
  Ratio of Increase of Pinna Thickness: 36.1%

## CCOC(=O)Nc1nc(-c2ccc(S(C)(=O)=O)cc2)cs1 [drawing 12]
[2]
  Swell suppression ratio to control group: 47.6%

## CCOC(=O)Nc1nc(-c2ccc(S(C)(=O)=O)cc2)cs1 [drawing 8]
[1]
  Ratio of Increase of Pinna Thickness: 36.0%

## CS(=O)(=O)c1ccc(-c2csc(NC(=O)OCC(Cl)(Cl)Cl)n2)cc1 [drawing 10]
[2]
  Swell suppression ratio to control group: 30.0%

## CS(=O)(=O)c1ccc(-c2csc(NC(=O)OCC(Cl)(Cl)Cl)n2)cc1 [drawing 6]
[1]
  Ratio of Increase of Pinna Thickness: 37.8%

## O=C(Nc1nc(-c2ccc([N+](=O)[O-])cc2)cs1)OCC(Cl)(Cl)Cl [drawing 9]
[2]
  Swell suppression ratio to control group: 45.0%
